Measurements taken from US10428081B2, “EGFR inhibitor, preparation method and use thereof” (Shanghai Hansoh Biomedical Co., Ltd., priority 2014, dated 2019).

How the values were obtained:
[1] = molecular target: exon 20 T790M mutant-type EGFR enzyme (Homo sapiens, UniProt P00533, T790M); test: Enzymologic experiment of T790M mutant-type EGFR (TR-FRET); type: biochemical; settings: for IC50: T790M EGFR enzyme, TR-FRET, ATP 1 to 10 uM; for Selectivity of wild-type/mutant-type: ratio WT IC50 / T790M IC50, enzyme
Chain of exon 20 T790M mutant-type EGFR enzyme (P00533 25-1210 T790M): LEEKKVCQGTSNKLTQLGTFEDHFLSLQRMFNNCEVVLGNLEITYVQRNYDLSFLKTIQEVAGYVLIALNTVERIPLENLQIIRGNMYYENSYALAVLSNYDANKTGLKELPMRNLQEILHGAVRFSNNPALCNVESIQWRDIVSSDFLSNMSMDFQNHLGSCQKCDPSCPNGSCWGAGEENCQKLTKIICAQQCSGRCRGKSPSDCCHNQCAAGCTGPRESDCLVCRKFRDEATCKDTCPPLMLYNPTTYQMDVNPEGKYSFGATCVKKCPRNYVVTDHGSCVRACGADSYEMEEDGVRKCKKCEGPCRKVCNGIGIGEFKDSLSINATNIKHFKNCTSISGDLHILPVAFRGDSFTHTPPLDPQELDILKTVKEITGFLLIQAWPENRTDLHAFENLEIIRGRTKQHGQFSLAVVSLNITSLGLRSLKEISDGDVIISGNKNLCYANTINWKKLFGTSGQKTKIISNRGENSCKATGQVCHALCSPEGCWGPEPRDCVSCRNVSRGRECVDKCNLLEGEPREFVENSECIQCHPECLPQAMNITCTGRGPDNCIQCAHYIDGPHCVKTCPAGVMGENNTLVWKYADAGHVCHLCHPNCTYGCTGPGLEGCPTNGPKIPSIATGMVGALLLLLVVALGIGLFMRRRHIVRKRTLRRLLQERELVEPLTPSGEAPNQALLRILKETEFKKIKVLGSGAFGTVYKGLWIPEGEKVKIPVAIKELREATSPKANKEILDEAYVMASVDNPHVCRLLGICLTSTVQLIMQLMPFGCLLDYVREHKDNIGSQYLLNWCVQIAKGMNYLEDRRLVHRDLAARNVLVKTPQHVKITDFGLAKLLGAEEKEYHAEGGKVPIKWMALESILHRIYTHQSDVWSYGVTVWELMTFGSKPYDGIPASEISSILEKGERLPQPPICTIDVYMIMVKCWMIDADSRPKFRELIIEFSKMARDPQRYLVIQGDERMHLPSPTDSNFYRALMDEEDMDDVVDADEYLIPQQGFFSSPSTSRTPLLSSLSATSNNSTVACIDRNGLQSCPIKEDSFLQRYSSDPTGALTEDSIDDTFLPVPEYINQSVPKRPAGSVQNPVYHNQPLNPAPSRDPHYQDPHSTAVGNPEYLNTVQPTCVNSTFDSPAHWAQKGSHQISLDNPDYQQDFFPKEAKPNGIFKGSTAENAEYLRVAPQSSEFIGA
In short: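 Compound dilutions preincubated 10 min at room temperature; reaction ended with EDTA, then labeled antibody added for 1 h at room temperature. Inhibition rates derived from TR-FRET fluorescence signal, and IC50 obtained by curve fitting across concentrations.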

wild-type EGFR enzyme = wild-type EGFR enzyme (Homo sapiens, UniProt P00533); test: Enzymologic experiment of wild-type (WT) EGFR (TR-FRET); type: biochemical; settings: ATP 0.1 to 5 uM
Chain of wild-type EGFR enzyme (P00533 25-1210): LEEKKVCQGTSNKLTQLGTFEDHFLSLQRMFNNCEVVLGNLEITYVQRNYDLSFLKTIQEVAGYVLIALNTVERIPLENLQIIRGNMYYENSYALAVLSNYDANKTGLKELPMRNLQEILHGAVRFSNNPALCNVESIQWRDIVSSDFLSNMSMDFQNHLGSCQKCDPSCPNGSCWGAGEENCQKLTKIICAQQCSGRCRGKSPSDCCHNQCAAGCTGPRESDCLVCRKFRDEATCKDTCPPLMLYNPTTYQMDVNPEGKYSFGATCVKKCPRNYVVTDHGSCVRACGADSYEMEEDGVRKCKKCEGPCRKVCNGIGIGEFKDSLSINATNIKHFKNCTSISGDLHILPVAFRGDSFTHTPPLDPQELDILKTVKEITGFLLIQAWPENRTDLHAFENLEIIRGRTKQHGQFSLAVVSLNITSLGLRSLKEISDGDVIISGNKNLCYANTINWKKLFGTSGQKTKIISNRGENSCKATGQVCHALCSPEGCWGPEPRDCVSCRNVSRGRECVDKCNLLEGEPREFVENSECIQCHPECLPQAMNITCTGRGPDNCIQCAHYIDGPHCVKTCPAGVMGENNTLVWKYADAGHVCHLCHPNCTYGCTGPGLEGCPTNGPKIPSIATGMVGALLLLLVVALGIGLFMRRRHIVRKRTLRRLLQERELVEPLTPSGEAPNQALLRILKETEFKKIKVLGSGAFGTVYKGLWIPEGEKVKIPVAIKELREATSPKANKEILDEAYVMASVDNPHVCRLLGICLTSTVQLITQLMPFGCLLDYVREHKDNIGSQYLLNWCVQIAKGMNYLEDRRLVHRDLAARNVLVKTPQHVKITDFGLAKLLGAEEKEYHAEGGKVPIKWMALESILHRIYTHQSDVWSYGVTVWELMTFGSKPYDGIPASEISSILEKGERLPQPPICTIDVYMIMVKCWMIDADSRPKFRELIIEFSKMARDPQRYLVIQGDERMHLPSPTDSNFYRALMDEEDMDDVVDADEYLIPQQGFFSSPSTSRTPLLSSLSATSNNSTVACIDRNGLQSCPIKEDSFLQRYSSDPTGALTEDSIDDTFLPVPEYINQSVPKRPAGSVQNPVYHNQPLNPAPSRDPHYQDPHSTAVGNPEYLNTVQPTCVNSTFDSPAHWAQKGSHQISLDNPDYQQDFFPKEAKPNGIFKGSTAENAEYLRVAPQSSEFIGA
In short: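 Wild-type EGFR (0.1 to 1 nM final) preincubated with serially diluted compound for 10 minutes at room temperature; reaction stopped with EDTA, then labelled antibody added for 1 hour at room temperature. TR-FRET signal converted to inhibition rates; IC50 from curve fitting across concentrations.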

NCI-H1975 cells = test: Inhibition of NCI-H1975 cell proliferation (CellTiter-Glo); type: cell-based; settings: for IC50: Homo sapiens, NCI-H1975, 72 h, NCI-H1975 cell proliferation, 72 hours, CellTiter-Glo, read-out: EGFR IC50 (nM) H1975; for Selectivity of wild-type/mutant-type: ratio A431 IC50 / H1975 IC50, cells
A431 cells = test: Inhibition of A431 cell proliferation (CellTiter-Glo); type: cell-based; settings: Homo sapiens, A-431, 72 h, read-out: EGFR IC50 (nM) A431
Method: 4. Experiment on the Inhibition of A431 Cell Proliferation
In this experiment, the inhibitory effect of the compounds on A431 cell proliferation was tested by a CellTiter-Glo method, and the half maximal inhibitory concentration (IC50) of the compounds on the activity of cell proliferation was determined.
The culture plate was incubated in the incubator for 16 to 24 hours (37° C., 5% CO2).
2) Different concentrations of the test compound in a gradient dilution were added to the cells in the culture plate. The culture plate was incubated in an incubator for 72 hours (37° C., 5% CO2).
3) 50 to 100 μL of CellTiter-Glo reagent was added to each well. Then the culture plate was shaken for 10 minutes, and left to stand at room temperature for 10 minutes.
4) The chemiluminescence signal values of each plate were determined by a microplate reader.
5) The inhibition rates were calculated according to the chemiluminescence signal values. 6) The IC50 of the compound was obtained by curve fitting according to the inhibition rates at different concentrations.

| SMILES | IC50 [1] [nM] | Selectivity of wild-type/mutant-type [1] | IC50 (wild-type EGFR enzyme) [nM] | IC50 (NCI-H1975 cells) [nM] | Selectivity of wild-type/mutant-type (NCI-H1975 cells) | IC50 (A431 cells) [nM] |
| --- | --- | --- | --- | --- | --- | --- |
| C=CC(=O)Nc1cc(Nc2nccc(-n3nc(C)c4ccc(OC)cc43)n2)c(OC)cc1N(C)CCN(C)C [Example 54, N-(2-((2-(dimethylamino)ethyl)(methyl)amino)-4-methoxy-5-((4-(6-methoxy-3-methyl-1H-indazol-1-yl)pyrimidin-2-yl)amino)phenyl)acrylamide] | 0.36 | 6.14 | 2.21 | 2.75 | 25.90 | 71.2 |
| C=CC(=O)Nc1cc(Nc2nccc(-n3nc(C)c4cc(C#N)ccc43)n2)c(OC)cc1N(C)CCN(C)C [Example 56, N-(5-((4-(5-cyano-3-methyl-1H-indazol-1-yl)pyrimidin-2-yl)amino)-2-((2-(dimethylamino)ethyl)(methyl)amino)-4-methoxyphenyl)acrylamide] | 1.54 | 10.56 | 16.3 | 7.08 | 97.25 | 688 |
| C=CC(=O)Nc1cc(Nc2nccc(-n3cnc4ccc(OC)cc43)n2)c(OC)cc1N(C)CCN(C)C [Example 60, N-(2-((2-(dimethylamino)ethyl)(methyl)amino)-4-methoxy-5-((4-(6-methoxy-1H-benzo[d]imidazol-1-yl)pyrimidin-2-yl)amino)phenyl)acrylamide] | 0.33 | 6.16 | 2.03 | 2.94 | 50.82 | 149 |
| C=CC(=O)Nc1cc(Nc2ncc(Cl)c(-n3cnc4cc(OC)ccc43)n2)c(OC)cc1N(C)CCN(C)C [Example 63, N-(5-((5-chloro-4-(5-methoxy-1H-benzo[d]imidazol-1-yl)pyrimidin-2-yl)amino)-2-((2-(dimethylamino)ethyl)(methyl)amino)-4-methoxyphenyl)acrylamide] | 0.36 | 41.53 | 14.9 | 1.87 | 37.97 | 71 |
| C=CC(=O)Nc1cc(Nc2ncc(C(F)(F)F)c(-n3cnc4cc(OC)ccc43)n2)c(OC)cc1N(C)CCN(C)C [Example 67, N-(2-((2-(dimethylamino)ethyl)(methyl)amino)-4-methoxy-5-((4-(5-methoxy-1H-benzo[d]imidazol-1-yl)-5-(trifluoromethyl)pyrimidin-2-yl)amino)phenyl)acrylamide] | 1.63 | 231.9 | 378 | 3.73 | 85.95 | 321 |
| C=CC(=O)Nc1cc(Nc2nccc(-c3cn(C)c4ccc(F)c(F)c34)n2)c(OC)cc1N(C)CCN(C)C [Example 90, N-(5-((4-(4,5-difluoro-1-methyl-1H-indol-3-yl)pyrimidin-2-yl)amino)-2-((2-(dimethylamino)ethyl)(methyl)amino)-4-methoxyphenyl)acrylamide] | 1.14 | 4.31 | 4.91 | 6.32 | 16.72 | 106 |
| C=CC(=O)Nc1cc(Nc2nccc(-c3cn(C)c4c(C5CC5)cccc34)n2)c(OC)cc1N(C)CCN(C)C [Example 91, N-(5-((4-(7-cyclopropyl-1-methyl-1H-indol-3-yl)pyrimidin-2-yl)amino)-2-((2-(dimethylamino)ethyl)(methyl)amino)-4-methoxyphenyl)acrylamide] | 2.25 | 6.54 | 14.7 | 25.9 | 21.49 | 558 |
| C=CC(=O)Nc1cc(Nc2nccc(-c3c[nH]c4c(C5CC5)cccc34)n2)c(OC)cc1N(C)CCN(C)C [Example 92, N-(5-((4-(7-cyclopropyl-1H-indol-3-yl)pyrimidin-2-yl)amino)-2-((2-(dimethylamino)ethyl)(methyl)amino)-4-methoxyphenyl)acrylamide] | 0.16 | 2.5 | 0.4 | 1.95 | 4.73 | 9.22 |
| C=CC(=O)Nc1cc(Nc2nccc(-c3c[nH]c4c(OC)cccc34)n2)c(OC)cc1N(C)CCN(C)C [Example 94, N-(2-((2-(dimethylamino)ethyl)(methyl)amino)-4-methoxy-5-((4-(7-methoxy-1H-indol-3-yl)pyrimidin-2-yl)amino)phenyl)acrylamide] | 0.71 | 1.771 | 1.26 | 3.91 | 9.93 | 38.8 |
| C=CC(=O)Nc1cc(Nc2nccc(-c3cn(C)c4cc(C=C)ccc34)n2)c(OC)cc1N(C)CCN(C)C [Example 96, N-(2-((2-(dimethylamino)ethyl)(methyl)amino)-4-methoxy-5-((4-(1-methyl-6-vinyl-1H-indol-3-yl)pyrimidin-2-yl)amino)phenyl)acrylamide] | 1.57 | 5.67 | 8.9 | 17.5 | 18.51 | 324 |
| C=CC(=O)Nc1cc(Nc2nccc(-c3c[nH]c4cc(OC)ccc34)n2)c(OC)cc1N(C)CCN(C)C [Example 97, N-(2-((2-(dimethylamino)ethyl)(methyl)amino)-4-methoxy-5-((4-(6-methoxy-1H-indol-3-yl)pyrimidin-2-yl)amino)phenyl)acrylamide] | 0.18 | 2.78 | 0.5 | 1.28 | 109.92 | 141 |
| C=CC(=O)Nc1cc(Nc2ncc(Cl)c(-c3cn(C)c4cc(OC)ccc34)n2)c(OC)cc1N(C)CCN(C)C [Example 98, N-(5-((5-chloro-4-(6-methoxy-1-methyl-1H-indol-3-yl)pyrimidin-2-yl)amino)-2-((2-(dimethylamino)ethyl)(methyl)amino)-4-methoxyphenyl)acrylamide] | 0.2 | 5.00 | 1 | 2.92 | 52.71 | 154 |
| C=CC(=O)Nc1cc(Nc2ncc(C(F)(F)F)c(-c3cn(C)c4cc(OC)ccc34)n2)c(OC)cc1N(C)CCN(C)C [Example 99, N-(2-((2-(dimethylamino)ethyl)(methyl)amino)-4-methoxy-5-((4-(6-methoxy-1-methyl-1H-indol-3-yl)-5-(trifluoromethyl)pyrimidin-2-yl)amino)phenyl)acrylamide] | 0.21 | 23.86 | 5.01 | 2.08 | 17.57 | 36.5 |
| C=CC(=O)Nc1cc(Nc2nccc(-c3cn(S(=O)(=O)N(C)C)c4ccccc34)n2)c(OC)cc1N(C)CCN(CC)CC [Example 103, N-(2-((2-(diethylamino)ethyl)(methyl)amino)-5-((4-(1-(N,N-dimethylsulfamoyl)-1H-indol-3-yl)pyrimidin-2-yl)amino)-4-methoxyphenyl)acrylamide] | 0.24 | 6.71 | 1.61 | 1.95 | 50.55 | 98.6 |
